Literature values in EP0331593A1, “Process for the preparation of hydroxybenzaldehydes by hydrocarbonylation” (RHONE-POULENC CHIMIE, priority 1988, dated 1989).
Like-named read-outs stand apart in the source and are kept apart here.

How the values were obtained:
[1] = phosphine
[2] = in water, generally 25°C

| SMILES | pKa à 25°C [1] | pKa * (pka del'acide conjugué de l'amine tertiaire) ([2]; Tableau I) | pKa * (pka del'acide conjugué de l'amine tertiaire) ([2]; Tableau III) | pKa * (pka de l'acide conjugé de l'amine tertiaire) ([2]; Tableau IV) | pKa * (pka de l'acide conjugé de l'amine tertiaire) ([2]; Tableau II) |
| --- | --- | --- | --- | --- | --- |
| c1ccc(P(c2ccccc2)c2ccccc2)cc1 [triphénylphosphine] | 2,73 |  |  |  |  |
| Cc1cccc(P(c2cccc(C)c2)c2cccc(C)c2)c1 [tris(méthyl-3 phényl)phosphine] | 3,3 |  |  |  |  |
| Cc1ccncc1 [Gamma Picoline] |  | 6,02 |  |  |  |
| c1cnccn1 [Pyrazine] |  | 0,65 | 0,65 | 0,65 |  |
| Cc1cccc(C)n1 [Diméthyl-2,6 Pyridine] |  | 6,73 |  |  | 6,73 |
| Cc1ccnc(C)c1 [Diméthyl-2,4 Pyridine] |  | 6,99 | 6,99 | 6,99 | 6,99 |
| Cc1ccncc1C [Diméthyl-3,4 Pyridine] |  | 6,57 |  |  | 6,57 |
